From US20060025449A1, “Use of N-substituted imino sugars for appetite suppression” (priority 2004, published 2006)

Experiments:
C57B1/6 mice [1] = test: Skin histology/thickness and gross dissection for white adipose tissue; assay type: in vivo, mouse
Protocol: Six week-old control mice on a normal diet or treated with 2400 mg/kg/day NB-DNJ for four weeks (n=3 in each group), were sacrificed and hair removed by shaving followed by application of a depilatory cream. A small section of skin was excised from the same area of the back of each mouse and processed for histology. After excision, the skin was put into mini histology trays containing OCT compound (BDH Laboratory Supplies, UK) and frozen for cryo-sectioning. Cryosections (10 μm thickness) of skin were then fixed in ice-cold acetone for 30 sec and rinsed under running tap water for 1 minute before dipping briefly in Mayer's haemotoxylin (Sigma, UK). The sections were dehydrated through a rising ethanol concentration series of 70%, 80%, 95%, 100% before clearing with Histo-Clear Histological Clearing agent (National Diagnostics, […], Hull, UK) twice for 5 min. Finally, the sections of skin were mounted with cover slips and DePeX mounting medium (BDH Laboratory Supplies, UK) on glass microscope slides. Another portion of skin (5 mm^2) was taken from each mouse, placed on a microscope slide and skin thickness measured using a micrometer gauge. […] Also, after complete depilation, this group of mice had transparent skin making the visceral organs, ventrally, and the kidneys and spinal vertebrae, dorsally, clearly visible in contrast to the opaque, non-transparent skin of controls. […]

[2] = system: lean control and obese mice; test: Dietary intake in lean and obese mice (compound in diet or intraperitoneal injection); assay type: in vivo, mouse
Protocol: Dietary intake of mice on powdered diets was measured on a daily basis, by pre-weighing diet put into the feeding hoppers then weighing remaining diet daily. Diet which the mice had spilt on the floor of the cage, was carefully recovered by sieving and incorporated into the measurements. In order to facilitate measurement of dietary intake, to exclude possible effects of the bitter taste of imino sugar in the diet and also inhibitory effects on disaccharidases in the gastrointestinal tract, groups of control and obese mice five weeks old were given daily intraperitoneal injections of NB-DNJ at a dose equivalent to 2400 mg/kg/day. A further group of obese mice was given daily intraperitoneal injections for two weeks from 10 weeks old. Control mice for each group were injected with an equal volume of isotonic saline vehicle. After assessment of dietary intake over five weeks in controls and three weeks in the obese mice, a restricted diet of 3.2 g/day for controls and 4.0 g/day for the obese mice was provided to compare with the effect of intraperitoneal injection. This equated to a 30% reduction in dietary provision for both groups of mice. […] Platt et al., J Biol Chem 272, 19365-72. This hypothesis was tested by measuring dietary intake in both lean and obese mice fed on both powdered chow with or without imino sugar and with pelleted diet. To exclude any effects of the bitter taste of imino sugars and also as a means to bypass any disaccharidase inhibition in the gut, lean control and obese mice were given daily intraperitoneal injections of NB-DNJ for five and three weeks respectively. Also, a group of obese mice had NB-DNJ mini-pumps implanted and, after four weeks, when the pumps were empty, were then given intraperitoneal injections daily. This delivery route has the advantage that it allows easy assessment of dietary intake, as the mice can eat pelleted diet.

C57B1/6 mice [3] = assay type: in vivo, mouse
Protocol: Growth rates of control and NB-DNJ-treated mice were analysed statistically by univariate analysis of variance (ANOVA) using SPSS software to compare slopes of growth from 54 to 174 days of age.
The effect of NB-DNJ on lean body mass growth was also assessed by measuring tibia lengths in a group of 20 control mice at one year old, 5 mice at 2 years old and two mice 19.5 months old after 18 months on 2400 mg/kg/day. Tibias were dissected from both hind-limbs then boiled in distilled water for 20 min to clean the bone of remaining connective tissue and muscle. Tibia length was then measured using calipers.
It can also be seen (FIG. 4) that the control mice lost weight over the first two weeks of treatment and then started to grow again, and continued to gain weight for the remainder of the study. […] Growth in both groups of mice as measured by the gradient of the line is similar and the data were analysed by univariate analysis of variance (ANOVA) to compare the slopes of growth statistically.
To establish further, whether NB-DNJ has an effect on lean growth of mice tibia lengths were measured in a large (n=20) group of control mice at one year of age, a smaller group (n=5) at two years of age and a comparison was made with two mice treated with NB-DNJ for 18 months.

lean control mouse = test: Single intracerebroventricular (ICV) injection, food intake and weight change after 24 hours; assay type: in vivo
Protocol: To investigate a central anorexigenic mechanism for weight loss in mice treated with NB-DNJ, single intracerebro-ventricular (ICV) injections were performed. The mice were assessed for food intake and weight change. Mice were anesthetized with isofluorane (4%) delivered by a vaporiser. Upon achievement of a surgical plane of anaesthesia, the animal was transferred to and secured in a Kopf small animal ultra precise stereotaxic instrument (David Kopf Instruments, Tujunga, Calif., USA) fitted with rat ear bars, mouse adaptor and mouse anaesthesia mask. A small amount of lignocaine local anaesthetic gel was applied to the ear bars to reduce any post-operative discomfort. For the remainder of the procedure, anaesthesia was maintained with 2.5% isofluorane. Lacrilube (Allergan Ltd, High Wycombe, UK) was applied to the mouse's eyes and a subcutaneous injection of the non-steroidal anti-inflammatory drug, Rimadyl (Pfizer, Sandwich, Kent, UK) was given for post-operative analgesia. For ICV injections, a small scalpel incision was made along the midline of the scalp from above the eyes to the occiput. A small hole was drilled in the skull, 1 mm lateral and 0.34 mm posterior to Bregma. 1 μl solution was slowly infused into the lateral ventricle at a depth of 2.25 mm, via a glass needle pipette pulled to a thickness of less than 100 microns at the tip. Mice were injected with 2 nmol compound (NB-DNJ, NB-DGJ or 2-deoxy glucose) in isotonic saline vehicle which was injected into controls. The incision was then closed using VetBond acrylic suture fluid (3M Animal Care Products, St Paul, Minn., USA). The whole procedure from induction of anaesthesia to full recovery lasted less than seven minutes. Mice were allowed free access to a pre-weighed quantity of RM1 pellet diet with water provided ad libitum. 24 hours following ICV injection the mice and remaining diet were weighed. To confirm a central anorectic effect of NB-DNJ, 2 nmol NB-DNJ, NB-DGJ and 2 deoxyglucose were injected directly into the lateral cerebral ventricle of lean control mouse brain (approximately 100 μM final cerebro-ventricular concentration). Mice injected with both saline vehicle and NB-DGJ ate a normal quantity of pellet diet in the following 24 hours (FIG. 9), approximately 5% less in this experiment than that seen in control mice in FIG. 7 (not statistically significant). In contrast, NB-DNJ-injected mice ate 20% less (p<0.02 for both saline and NB-DGJ) and 2-deoxy-glucose injections caused a 10% increase in feeding. 2-deoxy-glucose is a mild appetite stimulant in the short-term. Tsutsui et al., Physiol Behav 31, 493-502. In contrast, NB-DGJ had no effect, as expected.

**Q.** Which “white adipose tissue on gross dissection” value (C57B1/6 mice [1]; 2400 mg/kg/day) does the source give for `CCCCN1C[C@H](O)[C@@H](O)[C@H](O)[C@H]1CO` [NB-DNJ, N-butyldeoxynojirimycin] here?
**A.** The value was “significant depletion of white adipose tissue”.

**Q.** What about the “reduction in mouse skin thickness” value (C57B1/6 mice [1]; 2400 mg/kg/day for four weeks, six week-old mice) of the same molecule?
**A.** Its value is 40%.

**Q.** What about the “reduction in food intake” value ([2]; all groups of mice, pelleted or powdered diet, 2400 mg/kg/day equivalent) of the same molecule?
**A.** Its value is “around 30%”.

**Q.** And the “eat less than age and sex-matched controls” value ([2]; intraperitoneally injected mice, 2400 mg/kg/day equivalent)?
**A.** The value was 30%.

**Q.** And the “ate less than untreated controls” value ([2]; lean and obese groups)?
**A.** Its value is “up to one third less”.

**Q.** What about the “weighing less than control counterparts after original weight loss” value (C57B1/6 mice [3]; 2400 mg/kg/d in diet) of the same molecule?
**A.** The value was 4 g.

**Q.** What about the “lean mass” value (C57B1/6 mice [3]; admixed with diet, lean mice) of the same molecule?
**A.** Its value is “did not have any reduction in lean mass”.

**Q.** What about the “tibia lengths” value (C57B1/6 mice [3]; two mice treated for 18 months, 2400 mg/kg/day) of the same molecule?
**A.** Its value is “within the normal range”.

**Q.** And the “ate less than saline- and NB-DGJ-injected mice” value (lean control mouse; 2 nmol ICV, 24 hours)?
**A.** The value was 20%.

**Q.** And the “weight change” value (lean control mouse; 2 nmol ICV, 24 hours)?
**A.** The value was “significant weight loss”.

**Q.** And the “initial hyperphagic response” value (lean control mouse; first 24 hrs post icv injection)?
**A.** The value was “did not cause an initialhyperphagic response”.
